Data from US20130231296A1, “NEW DRUG COMBINATIONS FOR THE TREATMENT OF MALARIA” (Bioagency AG, priority 2010, published 2013).
Like-named read-outs stand apart in the source and are kept apart here.

Tests used:
P. falciparum K1 = assay: in vitro inhibition of parasite growth by [3H] hypoxanthine incorporation, drugs alone; type: cell-based; details: Plasmodium falciparum; for IC50: K1, P. falciparum K1 (insensitive to chloroquine)
Method: (§1) 1. Initial determination of the in vitro efficacy profile (IC50/IC90) of FOS and PIP against a drug sensitive and a drug resistant strain of Plasmodium falciparum. P. falciparum 3D7 is chloroquine sensitive, P. falciparum K1 is insensitive to chloroquine
(§2) in vitro inhibition of parasite growth was assessed by the incorporation of [3H] hypoxanthine, including chloroquine (CQ) and artesunate (ASN) as positive control drugs.
(§3) The first set of in vitro experiments established the IC50 values of the drugs alone, followed by Fixed Ratio Combination assays of FOS+PIP with FOS+CND as a control combination. Chloroquine and artesunate were included in all assays to ensure the validity of the test.
(§4) The first sets of experiments were carried out to establish the IC50 and IC90 values of the drugs on their own. The drugs were evaluated in 3 separate experiments (see Tables 1 & 2)

P. falciparum 3D7 = assay: as above; type: cell-based; details: Plasmodium falciparum; for IC50: 3D7, P. falciparum 3D7 (chloroquine sensitive)
Method: as §1, §2, §3, §4

[1] = 3D7, P. falciparum 3D7, Experiment 1
[2] = 3D7, P. falciparum 3D7, Experiment 2
[3] = 3D7, P. falciparum 3D7, Experiment 3

IC50 (P. falciparum K1; Experiment 1, read-out: IC50)	IC50 (P. falciparum K1; Experiment 2, read-out: IC50)	IC50 (P. falciparum K1; Experiment 3, read-out: IC50)	IC90 (P. falciparum K1; K1, P. falciparum K1, Experiment 1, read-out: IC90)	IC90 (P. falciparum K1; K1, P. falciparum K1, Experiment 2, read-out: IC90)	IC90 (P. falciparum K1; K1, P. falciparum K1, Experiment 3, read-out: IC90)	Structure (SMILES)	IC50 (P. falciparum K1; Experiment 1)	IC50 (P. falciparum K1; Experiment 2)	IC50 (P. falciparum K1; Experiment 3)	IC90 (P. falciparum K1; K1, P. falciparum K1, Experiment 1)	IC90 (P. falciparum K1; K1, P. falciparum K1, Experiment 2)	IC90 (P. falciparum K1; K1, P. falciparum K1, Experiment 3)	IC50 (P. falciparum 3D7; Experiment 1)	IC50 (P. falciparum 3D7; Experiment 2)	IC50 (P. falciparum 3D7; Experiment 3)	IC90 (P. falciparum 3D7; [1])	IC90 (P. falciparum 3D7; [2])	IC90 (P. falciparum 3D7; [3])
						C[C@H]1[C@H](OC(=O)CCC(=O)O)O[C@@H]2O[C@@]3(C)CC[C@H]4[C@H](C)CC[C@@H]1[C@@]24OO3 [ASN, Artesunate]	5 ng/mL	2 ng/mL	2 ng/mL	6 ng/mL	3 ng/mL	4 ng/mL	1.9 ng/mL	2 ng/mL	0.8 ng/mL	7 ng/mL	2 ng/mL	2 ng/mL
20 ng/mL	20 ng/mL	10 ng/mL	60 ng/mL	50 ng/mL	20 ng/mL	Clc1ccc2c(N3CCN(CCCN4CCN(c5ccnc6cc(Cl)ccc56)CC4)CC3)ccnc2c1 [PIP, 7-chloro-4-[4-[3-[4-(7-chloroquinolin-4-yl)piperazin-1-yl]propyl]piperazin-1-yl]quinoline]							10 ng/mL	6 ng/mL	10 ng/mL	18 ng/mL	20 ng/mL	10 ng/mL
